According to patent publication US20260248767A1, “METHODS FOR INDUCING FERROPTOSIS IN CANCER” (Board of Regents, The University of Texas System, priority 2023, published 2026):
“Also recorded” adds a separate entry of the source.

Legend:
[1] = test system: HT-1080, 786-O, U87, T98G, RCC4, H1299, A549, Hela and Hs578T; assay: Cell death assay (PI flow cytometry), panel of cancer cell lines; format: cell-based, human
Method: All cell lines used in this study were free of mycoplasma contamination (per testing done by the vendor). All the cells were cultured in a 37° C. incubator in a 5% CO2 atmosphere. H1299 cells were cultured in RPMI-1640 medium supplemented with 10% fetal bovine serum and 10,000 U/mL penicillin-streptomycin. HT-1080, 786-O, U87, T98G, RCC4, A549, Hela and Hs578T cells were cultured in Dulbecco modified Eagle medium (DMEM) supplemented with 10% fetal bovine serum and 10,000 U/mL of penicillin-streptomycin.
After treatment, cells were trypsinized and collected. […] All experiments were performed in triplicates.

HT-1080 cells = assay: Relative mitochondrial lipid peroxidation level; format: cell-based, human; conditions: combined with RSL3, compared to RSL3 alone
one-carbon metabolism = assay: dTTP levels and labelling (serine through one-carbon metabolism); format: cell-based; conditions: sulfite vs vehicle treated samples, over time
Method: The total dTTP, M+1dTTP and M+2 dTT were measured in the presence or absence of sulfite.
The complete platform consists of an Accela 1250 HPLC system, Accela Open Autosampler, MayLab Mistraswitch column oven and Exactive orbitrap mass spectrometer, controlled by the Xcalibur 3.0.63 software package. Chromatography was performed with a Phenomenex Synergi Hydro-RP column (100×2 mm, 2.5 μm particle size). Solvent A is 10 mM tributylamine and 15 mm acetic acid in water; Solvent B is methanol. The gradient is: 0 min, 0% B; 2.5 min, 0% B; 5 min, 20% B; 7.5 min, 20% B; 13 min, 55% B; 15.5 min, 95% B; 18.5 min, 95% B; 19 min, 0% B; 25 min, 0% B. The injection volume was 10 μl. The column temperature was set to 40° C., and the flow rate was 200 μl/min. The Exactive was operated in negative ionization mode with an electrospray ionization interface. The instrument parameters are as follows: sheath gas flow rate 30 (arbitrary units), aux gas flow rate 10 (arbitrary units), sweep gas flow rate 3 (arbitrary units), spray voltage 3 kV, capillary temperature 325° C., capillary voltage −25 V, tube lens voltage −50 V. The scan range was set to 80-1,000 m/z, with a maximum inject time of 250 ms, resolution of 100,000 at 1 Hz, and AGC (automatic gain control) target 1×10^6. The data were analyzed using the MAVEN software suite with signal intensity determined as the Peak Area (Top). For metabolic labelling experiments, the data were corrected to account for the natural abundance of nitrogen-15 using IsoCorrectoR (Heinrich, P. et al. Sci Rep 8, 17910, doi: 10.1038/s41598-018-36293-4 (2018)).

SHMT2 protein = biological target: T1, SHMT2 protein (Homo sapiens, UniProt P34897); assay: SHMT2 tetramer formation (immunoblot); format: cell-based; conditions: sulfite treatment
T1 construct: endogenous in cells
T1 sequence (P34897 30-504): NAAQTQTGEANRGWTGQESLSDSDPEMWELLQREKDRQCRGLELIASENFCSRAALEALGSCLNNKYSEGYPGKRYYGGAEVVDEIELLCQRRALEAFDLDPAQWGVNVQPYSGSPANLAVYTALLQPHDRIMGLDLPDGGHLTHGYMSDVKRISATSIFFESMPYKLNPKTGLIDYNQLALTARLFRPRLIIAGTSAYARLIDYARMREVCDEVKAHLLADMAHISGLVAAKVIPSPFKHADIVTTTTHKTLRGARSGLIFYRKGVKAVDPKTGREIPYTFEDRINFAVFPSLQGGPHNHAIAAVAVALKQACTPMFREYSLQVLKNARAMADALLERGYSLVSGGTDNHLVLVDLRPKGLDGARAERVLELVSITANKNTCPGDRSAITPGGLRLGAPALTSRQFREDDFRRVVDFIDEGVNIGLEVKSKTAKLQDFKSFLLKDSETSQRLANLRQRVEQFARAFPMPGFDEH
From the text: Exogenously expressed SHMT2 was also able to form tetramer (FIG. 8B).
To generate cell lines with stable overexpression of C-terminal-tagged SHMT2, the SHMT2 cDNA was cloned into the lentivirus expression vector pLEX_307 SFB. HEK293T cells were transfected with either pLEX_307 SFB-empty vector, or -SHMT2, together with the lentiviral packaging plasmids psPAX2 and pMD2.G using Lipofectamine 2000 reagent (Life Technologies, #11668030) according to the manufacturer's instructions and as described previously (Lei, G. et al. Oncogene 40, 3533-3547, doi: 10.1038/s41388-021-01790-w (2021); Lei, G. et al. Cell Res 30, 146-162, doi: 10.1038/s41422-019-0263-3 (2020)). Forty-eight hours later, lentivirus was collected and filtered, and the target cell lines were infected with lentivirus. Twenty-four hours after infection, antibiotic was added to the medium to obtain stable cell lines. Protein expression levels were determined by immunoblotting. To generate knockdown cell lines, lentiviral transduction with IDH1/ME1/MTHFD21 shRNA vectors was conducted as described previously (Lin, A. et al. Cancer Res 74, 1682-1693, doi: 10.1158/0008-5472.CAN-13-1729 (2014)). Forty-eight hours later, upon puromycin antibiotic selection, protein expression levels were determined by immunoblotting.
Briefly, cells were lysed in NP-40 lysis buffer (50 mM Tris [pH 7.4], 250 mM NaCl, 5 mM EDTA, 50 mM NaF, 1 mM Na3VO4, 1% Nonidet P40) containing complete mini protease inhibitors (Roche). The protein concentration of lysates was quantified using BCA Protein Assay Kit from Life Technologies (#23227). 20 μg of total protein was loaded into SDS-PAGE gel and transferred to a PVDF membrane (Bio-Rad) using standard techniques. […]

MTHFD2 = assay: Protein level after sulfite treatment (Western blotting), MTHFD2; format: cell-based; conditions: following treatment with sulfite
Method: To test if sulfite changed mitochondrial protein levels, SHMT2 and MTHFD2 protein levels were measured following treatment with sulfite. No changes in protein levels were observed (FIG. 9).
Briefly, cells were lysed in NP-40 lysis buffer (50 mM Tris [pH 7.4], 250 mM NaCl, 5 mM EDTA, 50 mM NaF, 1 mM Na3VO4, 1% Nonidet P40) containing complete mini protease inhibitors (Roche). The protein concentration of lysates was quantified using BCA Protein Assay Kit from Life Technologies (#23227). 20 μg of total protein was loaded into SDS-PAGE gel and transferred to a PVDF membrane (Bio-Rad) using standard techniques. The primary antibodies and concentrations used for Western blotting were Vinculin (1:1000, Sigma-Aldrich, #V4505), SUOX (1:1000, Abcam, #ab129094), SHMT2 (1:1000, Sigma-Aldrich, #HPA-020549), IDH1 (1:1000, Proteintech, #12332-1-AP), ME1 (1:1000,), MTHFD2 (1:1000, Abcam, #ab56772), Flag (1:1000, Sigma, #F1804), GPX4 (1:1,000, R&D, #MAB5457), COQ2 (1:1,000, Santa Cruz, sc-517107) and FSP1 (1:1000, Proteintech, #20886-1-AP).

In the case of `O=S([O-])[O-].[Na+].[Na+]` [sulfite, sodium sulfite], the “ferroptosis (cell death) in combination with RSL3” value ([1]; RSL3 0.2-2.0 μm plus sulfite 0.5-2 mM depending on cell line) is reported as “induced statistically significant ferroptosis”, the “induction of ferroptosis (cell death)” value ([1]; sulfite alone, 0.5-2 mM depending on cell line) is reported as “did not show induction of ferroptosis” and the “relative mitochondrial lipid peroxidation level in combination with RSL3” value (HT-1080 cells) is reported as “significantly increased”. The “M+1dTTP” value (one-carbon metabolism) was “decreased over time”, the “M+2 dTT” value (one-carbon metabolism) was “decreased over time” and the “total dTTP” value (one-carbon metabolism) was “decreased over time”. For the same compound, the “tetramer formation of endogenous SHMT2 protein” value (SHMT2 protein) was “disrupt the tetramer formation; also recorded: inhibits the tetramer formation”, the “tetramer formation of exogenous expressed SHMT2” value (SHMT2 protein) was “inhibit the tetramer formation” and the “tetramer formation of exogenous expressed SHMT2” value (SHMT2 protein; listed as Sulfite) was “inhibited the tetramer formation”. The MTHFD2 protein level (MTHFD2) was “No changes”.
